One test has as its system M. tb H37Rv. The experiment in a line: MIC determination against M. tb H37Rv (MIC-MABA). Particulars: 7H9 broth, 10 days exposure, MIC = lowest concentration inhibiting fluorescence by 90%; for MIC: Mycobacterium tuberculosis, H37RV, 240 h, read-out: M. tb H37Rv: MIC-MABA, M. tb H37Rv. The test is classed as cell-based, Mycobacterium tuberculosis.
In another test the test system is M. ab_ATCC. The experiment in a line: MIC against Mycobacterium abscessus (M. ab_ATCC, MHII), procedure of Franz 2017. The test is classed as cell-based. As to conditions: Mycobacterium abscessus ATCC; for MIC: Mycobacteroides abscessus. From the text: The procedure described in Franz 2017 was used to generate the data shown in column 2 of Table 1.

As a reminder, the MIC is the smallest concentration in the dilution series that meets the test's criterion for growth inhibition.

Values after ≈ are worked out from the molar mass of the structure shown.

For the compound `Cc1nc2[nH]c(C(=O)NC3CCCCCCC3)cc2s1` [MPL-042, N-cyclooctyl-2-methyl-4H-pyrrolo[2,3-d]thiazole-5-carboxamide], the figures for the minimal inhibitory concentration (MIC) with M. tb H37Rv and against M. ab_ATCC were 0.35 µg/mL (≈ 1.2 µM) and greater than 64 µg/mL, respectively.
For `COc1nc2[nH]c(C(=O)NC3CCC[Si](C)(C)CC3)cc2s1` (single isomer, unassigned) [MPL-395A, N-(1,1-dimethylsilepan-4-yl)-2-methoxy-4H-pyrrolo[2,3-d]thiazole-5-carboxamide], the “M. tb H37Rv: MIC-MABA” value with M. tb H37Rv (M. tb H37Rv) came to 0.030 µg/mL. In addition, in the test with M. ab_ATCC, the “M. ab_ATCC: MIC MHII: MIC” value was 0.5 µg/mL.
As to `C[Si]1(C)CCCC(NC(=O)c2cc3sc(C4CC4)nc3[nH]2)CCC1` [MPL-304, 2-cyclopropyl-N-(1,1-dimethylsilocan-5-yl) -4H-pyrrolo[2,3-d]thiazole-5-carboxamide], the minimum inhibitory concentration (MIC) was 0.291 µg/mL (≈ 0.805 µM) with M. tb H37Rv and greater than 64 µg/mL against M. ab_ATCC.
As for `C[Si]1(C)CCCC(NC(=O)c2cc3sc(OC4CCC4)nc3[nH]2)CC1` (centres unmarked) [MPL-475, 2-(cyclobutoxy)-N-(1,1-dimethylsilepan-4-yl)-4H-pyrrolo[2,3-d]thiazole-5-carboxamide], the MIC with M. tb H37Rv was found to be 0.046 µg/mL (≈ 0.122 µM); against M. ab_ATCC it was 16 µg/mL (≈ 42.4 µM).
For `Cc1c(C(=O)NC2CCCC[Si](C)(C)CC2)[nH]c2nc(C3CC3)sc12` (centres unmarked) [MPL-293, 2-cyclopropyl-N-(1,1-dimethylsilocan-4-yl)-6-methyl-4H-pyrrolo [2,3-d]thiazole-5-carboxamide] the same measures were 0.062 µg/mL (≈ 0.165 µM) and greater than 64 µg/mL.
For the compound `C[Si]1(C)CCC(NC(=O)c2cc3sc(-c4ccncc4)nc3[nH]2)CC1` [MPL-370, N-(1,1-dimethylsilinan-4-yl)-2-(4-pyridyl)-4H-pyrrolo[2,3-d]thiazole-5-carboxamide], the MIC in the test on M. tb H37Rv was 0.574 µg/mL (≈ 1.55 µM); in the test with M. ab_ATCC, greater than 64 µg/mL.
The matching figures for `COc1nc2[nH]c(C(=O)NC3CC[Si](C)(C)C3)cc2s1` (centres unmarked) [MPL-403, N-(1,1-dimethylsilolan-3-yl)-2-methoxy-4H-pyrrolo[2,3-d]thiazole-5-carboxamide]: 0.809 µg/mL (≈ 2.61 µM) and 4 µg/mL (≈ 12.9 µM).
On to `Cc1c(C(=O)NC2CC[Si](C)(C)CC2)[nH]c2nc(C3CC3)sc12` [MPL-228, 2-cyclopropyl-N-(1,1-dimethylsilinan-4-yl)-6-methyl-4H-pyrrolo[2,3-d]thiazole-5-carboxamide], for which the minimum inhibitory concentration (MIC) in the test on M. tb H37Rv was 0.061 µg/mL (≈ 0.176 µM); against M. ab_ATCC, greater than 64 µg/mL.
The matching figures for `Cc1nc2[nH]c(C(=O)N[C@H]3C[C@H]4C[C@H](C4(C)C)[C@@]3(C)O)cc2s1` [MPL-224, N-[(1R,2R,3S,5R)-2-hydroxy-2,6,6-trimethyl-norpinan-3-yl]-2-methyl-4H-pyrrolo[2,3-d]thiazole-5-carboxamide]: 0.39 µg/mL (≈ 1.17 µM) and greater than 64 µg/mL.
The matching figures for `Cc1nc2cc(C(=O)NC3CCCCCCC3)[nH]c2s1` [MPL-091, N-cyclooctyl-2-methyl-4H-pyrrolo[3,2-d]thiazole-5-carboxamide]: greater than 3.2 µg/mL and greater than 64 µg/mL.
For `COc1nc2[nH]c(C(=O)NC3CC[Si]4(CCCC4)CC3)cc2s1` [MPL-393, 2-methoxy-N-(5-silaspiro[4.5]decan-8-yl)-4H-pyrrolo[2,3-d]thiazole-5-carboxamide] the same measures were 0.062 µg/mL (≈ 0.177 µM) and greater than 64 µg/mL.
For the compound `C[Si]1(C)CCC(NC(=O)c2cc3sc(C4CC4)nc3[nH]2)C1` (centres unmarked) [MPL-297, 2-cyclopropyl-N-(1,1-dimethylsilolan-3-yl)-4H-pyrrolo[2,3-d]thiazole-5-carboxamide], the figures for the MIC in the test with M. tb H37Rv and in the test on M. ab_ATCC were 0.982 µg/mL (≈ 3.07 µM) and greater than 64 µg/mL, respectively.
For `Cc1ccccc1-c1nc2[nH]c(C(=O)NC3CC[Si](C)(C)CC3)cc2s1` [MPL-371, N-(1,1-dimethylsilinan-4-yl)-2-(o-tolyl)-4H-pyrrolo[2,3-d]thiazole-5-carboxamide] the same measures were 0.041 µg/mL (≈ 0.107 µM) and greater than 64 µg/mL.
Regarding `COc1nc2[nH]c(C(=O)NC3CCC[Si](C)(C)CCC3)cc2s1` [MPL-396, N-(1,1-dimethylsilocan-5-yl)-2-methoxy-4H-pyrrolo[2,3-d]thiazole-5-carboxamide], the MIC in the test with M. tb H37Rv was 0.309 µg/mL (≈ 0.879 µM); against M. ab_ATCC, greater than 64 µg/mL.
The matching figures for `C[C@@H]1[C@@H](NC(=O)c2cc3sc(C4CC4)nc3[nH]2)C[C@H]2C[C@@H]1C2(C)C` [MPL-144, 2-cyclopropyl-N-((1S,2S,3S,5R)-2,6,6-trimethylbicyclo[3.1.1]heptan-3-yl)-4H-pyrrolo[2,3-d]thiazole-5-carboxamide]: 1.5 µg/mL (≈ 4.37 µM) and greater than 64 µg/mL.
For `COc1nc2[nH]c(C(=O)NC3CC[Si](C)(C)CC3)cc2s1` [MPL-309, N-(1,1-dimethylsilinan-4-yl)-2-methoxy-4H-pyrrolo[2,3-d]thiazole-5-carboxamide] the same measures were 0.088 µg/mL (≈ 0.272 µM) and 0.625 µg/mL (≈ 1.93 µM).
The matching figures for `C[Si]1(C)CCC(NC(=O)c2cc3sc(C4CCCC4)nc3[nH]2)CC1` [MPL-474, 2-cyclopentyl-N-(1,1-dimethylsilinan-4-yl)-4H-pyrrolo[2,3-d] thiazole-5-carboxamide]: 0.061 µg/mL (≈ 0.169 µM) and greater than 64 µg/mL.
Regarding `C[Si]1(C)CCC(NC(=O)c2cc3sc(-c4ccccc4)nc3[nH]2)C1` (centres unmarked) [MPL-404, N-(1,1-dimethylsilolan-3-yl)-2-phenyl-4H-pyrrolo[2,3-d]thiazole-5-carboxamide], the figures for the MIC with M. tb H37Rv and in the test with M. ab_ATCC were 0.083 µg/mL (≈ 0.233 µM) and 64 µg/mL (≈ 180 µM), respectively.
As to `CC1(C)CCC(NC(=O)c2cc3scnc3[nH]2)CC1` [MPL-021, N-(4,4-dimethylcyclohexyl)-4H-pyrrolo[2,3-d]thiazole-5-carboxamide], the MIC with M. tb H37Rv was 1.3 µg/mL (≈ 4.69 µM); against M. ab_ATCC, greater than 64 µg/mL.
For `C[Si]1(C)CCCC(NC(=O)c2cc3sc(-c4ccccc4)nc3[nH]2)CC1` (racemic) [MPL-357, N-(1,1-dimethylsilepan-4-yl)-2-phenyl-4H-pyrrolo[2,3-d]thiazole-5-carboxamide] the same measures were 0.012 µg/mL (≈ 0.0313 µM) and greater than 64 µg/mL.
The matching figures for `O=C(NC1CCCCCCC1)c1cc2sc(C3CC3)nc2[nH]1` [MPL-142, N-cyclooctyl-2-cyclopropyl-4H-pyrrolo[2,3-d]thiazole-5-carboxamide]: 0.93 µg/mL (≈ 2.93 µM) and greater than 64 µg/mL.
The matching figures for `COc1nc2[nH]c(C(=O)NC3CC[Si]4(CCCCC4)CC3)cc2s1` [MPL-394, 2-methoxy-N-(6-silaspiro[5.5]undecan-3-yl)-4H-pyrrolo[2,3-d]thiazole-5-carboxamide]: 0.04 µg/mL (≈ 0.11 µM) and greater than 64 µg/mL.
Consider `COc1nc2[nH]c(C(=O)NC3CCC(C)(C)CC3)cc2s1` [MPL-456, N-(4,4-dimethylcyclohexyl)-2-methoxy-4H-pyrrolo[2,3-d]thiazole-5-carboxamide], for which the values for the MIC with M. tb H37Rv and with M. ab_ATCC were 0.317 µg/mL (≈ 1.03 µM) and 1 µg/mL (≈ 3.25 µM), respectively.
For `C[Si]1(C)CCC(NC(=O)c2cc3sc(-c4ccccc4)nc3[nH]2)CC1` [MPL-308, N-(1,1-dimethylsilinan-4-yl)-2-phenyl-4H-pyrrolo[2,3-d]thiazole-5-carboxamide] the same measures were 0.007 µg/mL (≈ 0.0189 µM) and greater than 64 µg/mL.
With `COCCOc1nc2[nH]c(C(=O)NC3CC[Si]4(CCCCC4)CC3)cc2s1` [MPL-427, 2-(2-methoxyethoxy)-N-(6-silaspiro[5.5]undecan-3-yl)-4H-pyrrolo[2,3-d] thiazole-5-carboxamide], the MIC is 0.036 µg/mL (≈ 0.0883 µM) in the test on M. tb H37Rv and greater than 64 µg/mL in the test on M. ab_ATCC.

The record behind these values is patent publication US20220396586A1, “THIAZOLE CARBOXAMIDE COMPOUNDS AND USE THEREOF FOR THE TREATMENT OF MYCOBACTERIAL INFECTIONS” (THE GLOBAL ALLIANCE FOR TB DRUG DEVELOPMENT, INC., priority 2019, published 2022).
